Data as given in ChEMBL document CHEMBL5380791, “Modular Biomimetic Strategy Enabled Discovery of Simplified Pseudo-Natural Macrocyclic P-Glycoprotein Inhibitors Capable of Overcoming Multidrug Resistance” (J Med Chem, 2023).
Calls of active or inactive are those of the source. No cut-off for these calls is given here.

What was measured:
KBv200 [1] = assay: Reversal of vinorelbine resistance in human KBv200 cells assessed as reduction in cell viability incubated for 72 hrs in presence of vinorelbine (reference value: 224 to 228.30 nM); assay type: functional, cell-based; conditions: KBv200, 72 h
KBv200 [2] = assay: Reversal fold, ratio of vinorelbine IC50 for cytotoxicity against human KBv200 cells over test compound IC50 for reversal of vinorelbine resistance in human KBv200 cells; assay type: functional
KBv200 [3] = assay: Reversal of paclitaxel resistance in human KBv200 cells assessed as reduction in cell viability incubated for 72 hrs in presence of paclitaxel (reference value: 392.9+/-196.5 nM); assay type: functional, cell-based; conditions: KBv200, 72 h
KBv200 [4] = assay: Reversal of adriamycin resistance in human KBv200 cells assessed as reduction in cell viability incubated for 72 hrs in presence of adriamycin (reference value: 1291.2+/-308.9 nM); assay type: functional, cell-based; conditions: KBv200, 72 h
KB = assay: Reversal of vinorelbine resistance in human KB cells assessed as reduction in cell viability incubated for 72 hrs in presence of vinorelbine (reference value: 7.4+/-2.2 nM); assay type: functional, cell-based
K562/Adr = assay: Reversal of vinorelbine resistance in human K562/Adr cells assessed as reduction in cell viability incubated for 72 hrs in presence of vinorelbine (reference value: 7320.6+/-2115.2 nM); assay type: functional, cell-based
K562 = assay: Reversal of vinorelbine resistance in human K562 cells assessed as reduction in cell viability incubated for 72 hrs in presence of vinorelbine (reference value: 5.9+/-0.2 nM); assay type: functional, cell-based; conditions: K562, 72 h
NCI/ADR-RES = assay: Reversal of vinorelbine resistance in human NCI/ADR-RES cells assessed as reduction in cell viability incubated for 72 hrs in presence of vinorelbine (reference value: 6125.7+/-3267.7 nM); assay type: functional, cell-based
OVCAR-8 = assay: Reversal of vinorelbine resistance in human OVCAR-8 cells assessed as reduction in cell viability incubated for 72 hrs in presence of vinorelbine (reference value: 16.2+/-4.7 nM); assay type: functional, cell-based; conditions: OVCAR-8, 72 h
KBv200 [5] = assay: Antitumor activity against human KBv200 cells xenografted in Balb/cA nude mouse assessed as mean tumor volume at 8 mg/kg, iv administered as single dose and measured on day 0; assay type: functional
KBv200 [6] = assay: Antitumor activity against human KBv200 cells xenografted in Balb/cA nude mouse assessed as mean tumor volume at 8 mg/kg, iv q4d administered for 13 days; assay type: functional; conditions: time 13 day
KBv200 [7] = assay: Antitumor activity against human KBv200 cells xenografted in Balb/cA nude mouse assessed as T/C ratio at 8 mg/kg, iv q4d administered for 13 days; assay type: functional; conditions: time 13 day
KBv200 [8] = assay: Antitumor activity against human KBv200 cells xenografted in Balb/cA nude mouse assessed as tumor growth inhibition at 8 mg/kg, iv q4d administered for 13 days; assay type: functional; conditions: KBv200, 312 h, time 13 day
[9] = Toxicity in Balb/cA nude mouse xenografted with human KBv200 cells assessed as changes in body weight at 75 mg/kg, ip qd administered for 13 days in presence of vinorelbine; assay type: organism-based; conditions: in vivo, 312 h, time 13 day
[10] = Toxicity in Balb/cA nude mouse xenografted with human KBv200 cells assessed as mortality at 75 mg/kg, ip qd administered for 13 days in presence of vinorelbine; assay type: organism-based; conditions: in vivo, 312 h, time 13 day
KBv200 [11] = assay: Induction of apoptosis in human KBv200 cells assessed as increase in cleaved PARP level at 5 uM incubated for 24 hrs by Western blotting analysis; assay type: functional, cell-based
KBv200 [12] = assay: Induction of apoptosis in human KBv200 cells assessed as increase in cleaved caspase 3 level at 5 uM incubated for 24 hrs by Western blotting analysis; assay type: functional, cell-based
KBv200 [13] = assay: Induction of apoptosis in human KBv200 cells assessed as increase in cleaved caspase 9 level at 5 uM incubated for 24 hrs by Western blotting analysis; assay type: functional, cell-based

SMILES | IC50 (KBv200 [1]; read-out: IC50) [nM] | Ratio IC50 (KBv200 [2]) | further results
COc1ccc(/C2=C/C=C(/c3ccccc3)CNC(=O)CCCCCCCCCCCNC(=O)[C@H](C(C)C)NC2=O)cc1 | 0.44 | 519 | 
CC(C)[C@@H]1NC(=O)C(c2ccccc2)CCC(c2ccccc2)CNC(=O)CCCCCCCCCCCNC1=O (stereo partly drawn) | 3.58 | 64 | 
CC(C)C[C@@H]1NC(=O)/C(c2ccccc2)=C\C=C(\c2ccccc2)CNC(=O)CCCCCCCCCCCNC1=O | 0.55 | 415 | 
CC(C)C1NC(=O)/C(c2ccccc2)=C\C=C(\c2ccccc2)CNC(=O)CCCCCCCCCCCNC1=O (stereo not drawn) | 1.13 | 202 | 
CC(C)[C@@H]1NC(=O)/C(c2ccccc2)=C\C=C(\c2ccccc2)CNC(=O)CCCCCCCCCNC1=O | 4.57 | 50 | 
CC(C)[C@@H]1NC(=O)/C(c2ccccc2)=C\C=C(\c2ccccc2)CNC(=O)CCCCCCCCCCCNC1=O | 1.19 | 192 | 
COc1ccc(CCN(C)CCCC(C#N)(c2ccc(OC)c(OC)c2)C(C)C)cc1OC (stereo not drawn) [VERAPAMIL] |  | 33 | IC50 (KBv200 [1]): 6.96 nM; IC50 (KBv200 [3]): 18.2 nM; IC50 (KBv200 [4]): 145 nM; IC50 (KB): 4.4 nM; IC50 (K562/Adr): 446 nM; IC50 (K562): 4.3 nM; IC50 (NCI/ADR-RES): 289 nM; IC50 (OVCAR-8): 8.5 nM
CC(C)[C@@H]1NC(=O)/C(c2ccccc2)=C/C=C(/c2ccccc2)CNC(=O)CCCCCCCNC1=O | 46.6 | 5 | 
O=C1CCCCCCCCCCCNC(=O)[C@@H]2CCCN2C(=O)/C(c2ccccc2)=C\C=C(\c2ccccc2)CN1 | 8.63 | 26 | 
C#CC[C@@H]1NC(=O)/C(c2ccccc2)=C\C=C(\c2ccccc2)CNC(=O)CCCCCCCCCCCNC1=O | 3.64 | 63 | 
O=C1CCCCCCCCCCCNC(=O)[C@H](Cc2c[nH]c3ccccc23)NC(=O)/C(c2ccccc2)=C\C=C(\c2ccccc2)CN1 | 140 | 2 | 
O=C1CCCCCCCCCCCNC(=O)[C@H](Cc2cn([C@@H]3O[C@H](CO)[C@@H](O)[C@H](O)[C@H]3O)nn2)NC(=O)/C(c2ccccc2)=C\C=C(\c2ccccc2)CN1 | 169 | 1.3 | 
CC(C)[C@@H]1NC(=O)/C(c2ccccc2)=C\C=C/CNC(=O)CCCCCCCCCCCNC1=O | 3.76 | 61 | 
NCCCC[C@@H]1NC(=O)/C(c2ccccc2)=C\C=C(\c2ccccc2)CNC(=O)CCCCCCCCCCCNC1=O | 289 | 0.8 | 
NC(=O)CC[C@@H]1NC(=O)/C(c2ccccc2)=C\C=C(\c2ccccc2)CNC(=O)CCCCCCCCCCCNC1=O | 210 | 1 | 
CSCC[C@@H]1NC(=O)/C(c2ccccc2)=C\C=C(\c2ccccc2)CNC(=O)CCCCCCCCCCCNC1=O | 1.24 | 184 | 

SMILES | IC50 (KBv200 [1]; read-out: IC50) [nM] | Ratio IC50 (KBv200 [2]) | further results
CC(C)[C@@H]1NC(=O)/C(c2cccc3ccccc23)=C\C=C(\c2ccccc2)CNC(=O)CCCCCCCCCCCNC1=O | 0.3 | 761 | 
O=C1CCCCCCCCCCCNC(=O)[C@H](Cc2cn([C@@H]3O[C@H](CO)[C@H](O)[C@H](O)[C@H]3O)nn2)NC(=O)/C(c2ccccc2)=C\C=C(\c2ccccc2)CN1 | 140 | 1.6 | 
CC(C)[C@@H]1NC(=O)/C(c2ccccc2)=C\C=C(\c2ccccc2)CNC(=O)CCOCCOCCOCCNC1=O | 127 | 1.8 | 
COc1ccc(/C2=C/C=C(/c3ccccc3)C(=O)N[C@@H](C(C)C)C(=O)NCCCCCCCCCCCC(=O)NC2)cc1 | 1.54 | 148 | 
CC(=O)N[C@@H]1[C@@H](O)[C@H](O)[C@@H](CO)O[C@H]1n1cc(C[C@@H]2NC(=O)/C(c3ccccc3)=C\C=C(\c3ccccc3)CNC(=O)CCCCCCCCCCCNC2=O)nn1 | 152 | 1.5 | 
CC(=O)N[C@@H]1[C@@H](OC(C)=O)[C@H](OC(C)=O)[C@@H](COC(C)=O)O[C@H]1n1cc(C[C@@H]2NC(=O)/C(c3ccccc3)=C\C=C(\c3ccccc3)CNC(=O)CCCCCCCCCCCNC2=O)nn1 | 248 | 0.9 | 
O=C1CCCCCCCCCCCNC(=O)CNC(=O)/C(c2ccccc2)=C\C=C(\c2ccccc2)CN1 | 24.5 | 9 | 
O=C1CCCCCCCCCCCNC(=O)[C@H](Cc2ccccc2)NC(=O)/C(c2cccc3ccccc23)=C\C=C(\c2ccccc2)CN1 | 0.05 | 4566 | 
CC(C)[C@H]1NC(=O)/C(c2cccc3ccccc23)=C\C=C(\c2ccccc2)CNC(=O)CCCCCCCCCCCNC1=O | 0.21 | 1291 | 
O=C1CCCCCCCCCCCNC(=O)[C@H](Cc2ccccc2)NC(=O)/C(c2ccccc2)=C\C=C(\c2ccccc2)CN1 | 0.38 | 601 | 
CC(C)[C@@H]1NC(=O)/C(c2ccccc2)=C\C=C(\c2ccc(F)cc2)CNC(=O)CCCCCCCCCCCNC1=O | 0.42 | 543 | 
O=C1CCCCCCCCCCCNC(=O)[C@H](Cc2ccc(O)cc2)NC(=O)/C(c2ccccc2)=C\C=C(\c2ccccc2)CN1 | 1.76 | 130 | 
CCC1=C[C@@H]2CN(C1)Cc1c([nH]c3ccccc13)[C@@](C(=O)OC)(c1cc3c(cc1OC)N(C)[C@H]1[C@@](O)(C(=O)OC)[C@H](OC(C)=O)[C@]4(CC)C=CCN5CC[C@]31[C@@H]54)C2 [VINORELBINE] |  |  | Activity (KBv200 [5]): 122.3 mm3; Activity (KBv200 [6]): 1727.4 mm3; T/C (KBv200 [7]): 82%; inhibition in vivo at 8 mg/kg (KBv200 [8]): 18%; Activity [9]: Non-Toxic; Activity [10]: Non-Toxic; Activity (KBv200 [11]): inactive; Activity (KBv200 [12]): inactive; Activity (KBv200 [13]): inactive
CC(C)[C@@H]1NC(=O)/C(c2ccc(Br)cc2)=C\C=C(\c2ccccc2)CNC(=O)CCCCCCCCCCCNC1=O | 0.4 | 570 | 
COc1ccc(/C2=C/C=C(/c3ccccc3)CNC(=O)CCCCCCCCCCCNC(=O)[C@H](C(C)C)NC2=O)cc1OC | 3.65 | 63 | 
CC(C)[C@H](NC(=O)/C(=C/C=C(/CNC(=O)CCCCCCCCCCCN)c1ccccc1)c1ccccc1)C(=O)O | 199 | 1.1 | 
